PubChem BioAssay (NCI)
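These data come from cells grown in 96-well plates and exposed to compound for 48 hours at five concentrations. GI50 marks 50% less growth. TGI denotes the concentration required for complete inhibition of growth.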

Assays:
Test in all cases: NCI-60 cell line screen, 48 h
UACC-257 melanoma = tested on: UACC-257 melanoma
IGROV1 ovarian = tested on: IGROV1 ovarian
NCI-H23 lung = tested on: NCI-H23 lung
HOP-18 NSCLC = tested on: HOP-18 NSCLC
HCT-116 colon = tested on: HCT-116 colon
MOLT-4 leukemia = tested on: MOLT-4 leukemia
HCT-15 colon = tested on: HCT-15 colon
UACC-62 melanoma = tested on: UACC-62 melanoma
SNB-78 CNS = tested on: SNB-78 CNS
ACHN renal = tested on: ACHN renal
XF 498 CNS = tested on: XF 498 CNS
M19-MEL melanoma = tested on: M19-MEL melanoma
SR leukemia = tested on: SR leukemia
SK-OV-3 ovarian = tested on: SK-OV-3 ovarian
TK-10 renal = tested on: TK-10 renal
HCC-2998 colon = tested on: HCC-2998 colon
SNB-19 CNS = tested on: SNB-19 CNS
NCI-H226 lung = tested on: NCI-H226 lung
SK-MEL-2 melanoma = tested on: SK-MEL-2 melanoma
OVCAR-3 ovarian = tested on: OVCAR-3 ovarian
K-562 leukemia = tested on: K-562 leukemia
SF-268 CNS = tested on: SF-268 CNS
SW-620 colon = tested on: SW-620 colon
SK-MEL-5 melanoma = tested on: SK-MEL-5 melanoma
OVCAR-4 ovarian = tested on: OVCAR-4 ovarian
SF-295 CNS = tested on: SF-295 CNS
KM12 colon = tested on: KM12 colon
MALME-3M melanoma = tested on: MALME-3M melanoma
786-0 renal = tested on: 786-0 renal
M14 melanoma = tested on: M14 melanoma
U251 CNS = tested on: U251 CNS
LOX IMVI melanoma = tested on: LOX IMVI melanoma
DMS 273 small cell lung = tested on: DMS 273 small cell lung
HOP-62 NSCLC = tested on: HOP-62 NSCLC
OVCAR-8 ovarian = tested on: OVCAR-8 ovarian
KM20L2 colon = tested on: KM20L2 colon
COLO 205 colon = tested on: COLO 205 colon
CAKI-1 renal = tested on: CAKI-1 renal
HOP-92 NSCLC = tested on: HOP-92 NSCLC
SN12C renal = tested on: SN12C renal
A498 renal = tested on: A498 renal
EKVX NSCLC = tested on: EKVX NSCLC
NCI-H522 lung = tested on: NCI-H522 lung
HL-60(TB) leukemia = tested on: HL-60(TB) leukemia
SNB-75 CNS = tested on: SNB-75 CNS
OVCAR-5 ovarian = tested on: OVCAR-5 ovarian
SK-MEL-28 melanoma = tested on: SK-MEL-28 melanoma
SF-539 CNS = tested on: SF-539 CNS
NCI-H460 lung = tested on: NCI-H460 lung
DLD-1 colon = tested on: DLD-1 colon
HT29 colon = tested on: HT29 colon
A549 NSCLC = tested on: A549 NSCLC
UO-31 renal = tested on: UO-31 renal
CCRF-CEM leukemia = tested on: CCRF-CEM leukemia
LXFL 529 NSCLC = tested on: LXFL 529 NSCLC
DMS 114 small cell lung = tested on: DMS 114 small cell lung
RXF 393 renal = tested on: RXF 393 renal
RPMI-8226 leukemia = tested on: RPMI-8226 leukemia

SMILES: COc1ccc(N2C(=O)C3CC(c4ccc(C)cc4)c4c([nH]c5ccccc45)C3C2=O)cc1 (centres undefined)
- TGI (UACC-257 melanoma): > 100 µM
- TGI (IGROV1 ovarian): > 79.6 µM
- TGI (NCI-H23 lung): > 93.9 µM
- TGI (HOP-18 NSCLC): 10.3 µM
- TGI (HCT-116 colon): 17.2 µM
- TGI (MOLT-4 leukemia): > 58.7 µM
- TGI (HCT-15 colon): > 89.7 µM
- TGI (UACC-62 melanoma): > 100 µM
- TGI (SNB-78 CNS): 98.7 µM
- TGI (ACHN renal): > 63.8 µM
- TGI (XF 498 CNS): > 74 µM
- TGI (M19-MEL melanoma): > 100 µM
- TGI (SR leukemia): 4.55 µM
- TGI (SK-OV-3 ovarian): 93 µM
- TGI (TK-10 renal): > 95.3 µM
- TGI (HCC-2998 colon): > 100 µM
- TGI (SNB-19 CNS): > 56.3 µM
- TGI (NCI-H226 lung): 28.1 µM
- TGI (SK-MEL-2 melanoma): > 100 µM
- TGI (OVCAR-3 ovarian): 12.3 µM
- TGI (K-562 leukemia): > 100 µM
- TGI (SF-268 CNS): > 76.3 µM
- TGI (SW-620 colon): > 55.3 µM
- TGI (SK-MEL-5 melanoma): > 100 µM
- TGI (OVCAR-4 ovarian): 27.5 µM
- TGI (SF-295 CNS): > 86.8 µM
- TGI (KM12 colon): > 100 µM
- TGI (MALME-3M melanoma): 49.6 µM
- TGI (786-0 renal): 26.6 µM
- TGI (M14 melanoma): > 89.2 µM
- TGI (U251 CNS): 16.8 µM
- TGI (LOX IMVI melanoma): 26.4 µM
- TGI (DMS 273 small cell lung): > 100 µM
- TGI (HOP-62 NSCLC): 53.7 µM
- TGI (OVCAR-8 ovarian): 38.9 µM
- TGI (KM20L2 colon): > 100 µM
- TGI (COLO 205 colon): > 48.5 µM
- TGI (CAKI-1 renal): > 100 µM
- TGI (HOP-92 NSCLC): 73.7 µM
- TGI (SN12C renal): 31.8 µM
- TGI (A498 renal): 55.6 µM
- TGI (EKVX NSCLC): > 100 µM
- TGI (NCI-H522 lung): 51 µM
- TGI (HL-60(TB) leukemia): 30.9 µM
- TGI (SNB-75 CNS): 51 µM
- TGI (OVCAR-5 ovarian): > 100 µM
- TGI (SK-MEL-28 melanoma): 99.7 µM
- TGI (SF-539 CNS): > 62.5 µM
- TGI (NCI-H460 lung): 31.8 µM
- TGI (DLD-1 colon): > 100 µM
- TGI (HT29 colon): > 100 µM
- TGI (A549 NSCLC): 43.3 µM
- TGI (UO-31 renal): > 70.7 µM
- TGI (CCRF-CEM leukemia): > 45.6 µM
- TGI (LXFL 529 NSCLC): > 56.1 µM
- TGI (DMS 114 small cell lung): > 86 µM

SMILES: [O-]c1ccccc1/C=N/c1nccs1.[O-]c1ccccc1/C=N/c1nccs1.[O]=[U+2]=[O]
- GI50 (UACC-257 melanoma): > 100 µM
- TGI (UACC-257 melanoma): > 100 µM
- GI50 (IGROV1 ovarian): 42.4 µM
- TGI (IGROV1 ovarian): > 100 µM
- GI50 (NCI-H23 lung): > 100 µM
- TGI (NCI-H23 lung): > 100 µM
- GI50 (HOP-18 NSCLC): 5.75 µM
- TGI (HOP-18 NSCLC): > 100 µM
- GI50 (HCT-116 colon): 11.5 µM
- TGI (HCT-116 colon): > 100 µM
- GI50 (MOLT-4 leukemia): 27.4 µM
- TGI (MOLT-4 leukemia): > 100 µM
- GI50 (HCT-15 colon): 22.2 µM
- TGI (HCT-15 colon): > 100 µM
- GI50 (UACC-62 melanoma): > 100 µM
- TGI (UACC-62 melanoma): > 100 µM
- GI50 (SNB-78 CNS): > 100 µM
- TGI (SNB-78 CNS): > 100 µM
- GI50 (ACHN renal): > 100 µM
- TGI (ACHN renal): > 100 µM
- GI50 (XF 498 CNS): 98.9 µM
- TGI (XF 498 CNS): > 100 µM
- GI50 (M19-MEL melanoma): > 100 µM
- TGI (M19-MEL melanoma): > 100 µM
- GI50 (SK-OV-3 ovarian): > 100 µM
- TGI (SK-OV-3 ovarian): > 100 µM
- GI50 (TK-10 renal): 33.6 µM
- TGI (TK-10 renal): 78.7 µM
- GI50 (HCC-2998 colon): 75.1 µM
- TGI (HCC-2998 colon): > 100 µM
- GI50 (SNB-19 CNS): 12.7 µM
- TGI (SNB-19 CNS): > 100 µM
- GI50 (NCI-H226 lung): > 100 µM
- TGI (NCI-H226 lung): > 100 µM
- GI50 (SK-MEL-2 melanoma): > 100 µM
- TGI (SK-MEL-2 melanoma): > 100 µM
- GI50 (OVCAR-3 ovarian): > 100 µM
- TGI (OVCAR-3 ovarian): > 100 µM
- GI50 (K-562 leukemia): 57.1 µM
- TGI (K-562 leukemia): > 100 µM
- GI50 (SF-268 CNS): > 100 µM
- TGI (SF-268 CNS): > 100 µM
- GI50 (SW-620 colon): 99.8 µM
- TGI (SW-620 colon): > 100 µM
- GI50 (SK-MEL-5 melanoma): > 100 µM
- TGI (SK-MEL-5 melanoma): > 100 µM
- GI50 (OVCAR-4 ovarian): > 100 µM
- TGI (OVCAR-4 ovarian): > 100 µM
- GI50 (SF-295 CNS): > 100 µM
- TGI (SF-295 CNS): > 100 µM
- GI50 (KM12 colon): > 100 µM
- TGI (KM12 colon): > 100 µM
- GI50 (MALME-3M melanoma): > 100 µM
- TGI (MALME-3M melanoma): > 100 µM
- GI50 (786-0 renal): 25 µM
- TGI (786-0 renal): > 100 µM
- GI50 (M14 melanoma): > 100 µM
- TGI (M14 melanoma): > 100 µM
- GI50 (RXF 393 renal): > 100 µM
- TGI (RXF 393 renal): > 100 µM
- GI50 (LOX IMVI melanoma): 25.7 µM
- TGI (LOX IMVI melanoma): > 100 µM
- GI50 (DMS 273 small cell lung): 7.15 µM
- TGI (DMS 273 small cell lung): > 100 µM
- GI50 (HOP-62 NSCLC): > 100 µM
- TGI (HOP-62 NSCLC): > 100 µM
- GI50 (OVCAR-8 ovarian): > 100 µM
- TGI (OVCAR-8 ovarian): > 100 µM
- GI50 (KM20L2 colon): > 100 µM
- TGI (KM20L2 colon): > 100 µM
- GI50 (COLO 205 colon): > 100 µM
- TGI (COLO 205 colon): > 100 µM
- GI50 (CAKI-1 renal): 37.9 µM
- TGI (CAKI-1 renal): > 100 µM
- GI50 (SN12C renal): > 100 µM
- TGI (SN12C renal): > 100 µM
- GI50 (A498 renal): 26.2 µM
- TGI (A498 renal): > 100 µM
- GI50 (EKVX NSCLC): > 100 µM
- TGI (EKVX NSCLC): > 100 µM
- GI50 (NCI-H522 lung): 61.4 µM
- TGI (NCI-H522 lung): > 100 µM
- GI50 (HL-60(TB) leukemia): 35.5 µM
- TGI (HL-60(TB) leukemia): > 100 µM
- GI50 (SNB-75 CNS): > 100 µM
- TGI (SNB-75 CNS): > 100 µM
- GI50 (OVCAR-5 ovarian): > 100 µM
- TGI (OVCAR-5 ovarian): > 100 µM
- GI50 (SK-MEL-28 melanoma): > 100 µM
- TGI (SK-MEL-28 melanoma): > 100 µM
- GI50 (SF-539 CNS): 23.6 µM
- TGI (SF-539 CNS): > 100 µM
- GI50 (DLD-1 colon): 22.4 µM
- TGI (DLD-1 colon): > 100 µM
- GI50 (HT29 colon): > 100 µM
- TGI (HT29 colon): > 100 µM
- GI50 (A549 NSCLC): > 100 µM
- TGI (A549 NSCLC): > 100 µM
- GI50 (UO-31 renal): 37.4 µM
- TGI (UO-31 renal): > 100 µM
- GI50 (CCRF-CEM leukemia): > 100 µM
- TGI (CCRF-CEM leukemia): > 100 µM
- GI50 (LXFL 529 NSCLC): 29.1 µM
- TGI (LXFL 529 NSCLC): > 100 µM
- GI50 (RPMI-8226 leukemia): 37.7 µM
- TGI (RPMI-8226 leukemia): > 100 µM
- GI50 (DMS 114 small cell lung): 11.1 µM
- TGI (DMS 114 small cell lung): > 100 µM
